The subject of data set [1] is MCF-7/DX (estrogen-responsive breast adenocarcinoma resistant to doxorubicin). Description: cells. The data set is classed as cell-based, human.
Procedure: The cytotoxicity of cymantrene derivatives was evaluated by the MTT microplate methods as described elsewhere [67] by incubating the cells with increasing concentrations of tested compounds for 24 h. Briefly, 0.1 mL of logarithmically growing cells were seeded in a 96-well microplate (5 × 10^4 cells/well) a day before the experiments and after 24 h of culture, tested compounds, dissolved in DMSO, and diluted in culture medium, were added. […] After further incubation for 24 h, the medium was replaced with fresh medium and the cells were allowed to grow for additional 48 h. Then, the medium was aspirated and 0.05 mL of MTT (final concentration of 5 mg/mL medium) added to each well, and the cells were incubated for further 4 h. The absorbance of the product, resulting from the MTT reduction, was read with a microplate reader at 545 nm. The percentage of viable cells was calculated by comparing the absorbance of treated cells with that of the untreated control cells (taken as 100%). The IC50 concentration of each compound was calculated from the cell survival curves using GraphPad Prism 4.02 software for Windows (GraphPad Software, San Diego, CA, USA).
The subject of data set [2] is A549 (non-small cell lung carcinoma). Description: MTT cytotoxicity assay, A549. Here is the method: Anticancer activity of cymantrenes was determined using a panel of human cancer cell lines that were derived from solid tumors. These included cell lines of estrogen-responsive, doxorubicin resistant, and triple negative breast adenocarcinomas (MCF-7, MCF-7/DX, and MDA-MB-231), ovarian adenocarcinoma (SKOV-3), non-small cell lung carcinoma (A549), hepatocellular carcinoma (HepG2), and glioblastoma (U-87 MG). The inhibitory effect of cymantrene derivatives on cell proliferation and growth was determined based on survival curves and was expressed as IC50 values (concentration required to achieve a 50% decrease in cell viability when compared to the viability of untreated control cells) calculated using GraphPad Prism 4.02 software for Windows (GraphPad Software, San Diego, CA, USA). Cell viability was determined by the MTT microplate spectrophotometric cytotoxicity test.
Anticancer activity of cymantrene derivetives were determined on the basis of their cytotoxic effects on a panel of human cancer cells, as derived from different types of solid tumors: estrogen responsive breast adenocarcinoma (MCF-7), triple negative breast adenocarcinoma (MDA-MB-231), ovarian adenocarcinoma (SKOV-3), non-small cell lung carcinoma (A549), hepatocellular carcinoma (HepG2), and glioblastoma (U-87 MG). Additionally, doxorubicin resistant breast adenocarcinoma cells (MCF-7/Dox) were also included for comparison. All of the cell lines were purchased from American Type Culture Collection (ATCC, Rockville, MD, USA), except the MCF-7/dox cell line, which was a generous gift from Professor Malgorzata Latocha from the Department of Cell Biology, Medical University of Silesia in Katowice, Poland.
Cells were grown as a monolayer in DMEM growth medium, supplemented with 10% FBS, penicillin (10 U/mL) and streptomycin (50 μg/mL), under standard conditions (37 °C, 5% CO2 and 95% air, 100% humidity) and periodically checked for Mycoplasma contamination.
The cytotoxicity of cymantrene derivatives was evaluated by the MTT microplate methods as described elsewhere by incubating the cells with increasing concentrations of tested compounds for 24 h. Briefly, 0.1 mL of logarithmically growing cells were seeded in a 96-well microplate (5 × 10^4 cells/well) a day before the experiments and after 24 h of culture, tested compounds, dissolved in DMSO, and diluted in culture medium, were added. […] After further incubation for 24 h, the medium was replaced with fresh medium and the cells were allowed to grow for additional 48 h. Then, the medium was aspirated and 0.05 mL of MTT (final concentration of […] medium) added to each well, and the cells were incubated for further 4 h. The absorbance of the product, resulting from the MTT reduction, was read with a microplate reader at 545 nm. The percentage of viable cells was calculated by comparing the absorbance of treated cells with that of the untreated control cells (taken as 100%). The IC50 concentration of each compound was calculated from the cell survival curves using GraphPad Prism 4.02 software for Windows (GraphPad Software, San Diego, CA, USA).
For orientation: Tetrazolium dyes change colour on reduction, which living cells bring about.

Data set [3] relates to SKOV-3 cells. As to the kind of experiment: Apoptotic/necrotic cell death, Hoechst 33258/propidium iodide staining, fluorescence microscopy. Conditions: for increase of apoptotic cells compared to untreated control cells: SKOV-3, 24 h treatment with IC50 concentrations, post-treatment 24 and 48 h; for apoptotic cell fraction predominantly increased: SKOV-3, IC50 concentrations. The data set is classed as cell-based, human. The method, then:
To determine the mode of cell death that was triggered by cymantrene derivatives, appropriately stained SKOV-3 cells were evaluated for morphological changes using fluorescence microscopy. For evaluation of apoptosis and autophagy, cells were stained with Hoechst 33258/propidium iodide to distinguish between live, apoptotic and necrotic cells and reveal condensed chromatin and apoptotic bodies (a hallmark of apoptosis), and with acridine orange to detect the development of acidic vesicular organelles (AVOs—a hallmark of autophagy).
One day prior to the experiments, cells were seeded at the appropriate density into 35 mm diameter dishes. […] At the end of incubation, the medium was aspirated, the cell monolayer was washed twice with pre-warmed PBS, and fresh medium was added. The cells were cultured in drug-free medium for an additional 24 or 48 h to enable them to recover after the exposure to the compounds and to repair any induced damages.
Quantitative analysis of morphological changes that are associated with apoptosis, necrosis, and autophagy were assessed using a fluorescence microscope (Olympus IX70, Tokyo, Japan) at 400× magnification, as described elsewhere. At the indicated time points, cells were washed with PBS, trypsinized, and centrifuged at 1000 rpm (fixed angle rotor, 72× g) for 5 min at 37 °C. The supernatant was removed and the cell pellet (100 µL) was transferred to the Eppendorf tube, mixed with Ho33258 (2 µL, 0.13 mM) and PI (2 µL, 0.23 mM), and incubated for 5 min in the dark at room temperature. At least 300 stained cells were counted in triplicate in each of the three independent experiments. Cells were classified as live, apoptotic, or necrotic on the basis of their morphological and staining characteristics, and each fraction was related to the total cell number.

Data set [4] concerns SKOV-3 cells. As to the kind of experiment: Intracellular ROS, H2DCF-DA fluorescent probe. It counts as cell-based, human. Particulars: SKOV-3, 0.5 × IC50, IC50, 2 × IC50. The source says: Oxidative stress is a part of the cytotoxic activity of many anticancer agents and the production of reactive oxygen species (ROS) is considered as one of the main molecular mechanisms accompanying chemotherapy, radiotherapy, and photodynamic therapy. Since ROS can act as both oxidants and antioxidants, depending on the conditions, pro- and anti-oxidant therapies have been proposed for the treatment of cancer. So far, both ROS scavenging and ROS boosting anticancer therapies have shown promising results in vitro and in vivo [48]. Using an appropriate fluorescence probe, we measured the amount of ROS in cancer cells that were treated with cymantrene derivatives. […] The greatest increase in ROS was observed after […], with the highest concentration of cymantrene conjugates employed (2 × IC50) (Figure 8). […] As compounds 1, 3, 5, and C were effective in the production ROS, as well as in the induction of apoptosis and autophagy, these processes might contribute together to the cytotoxic action of the molecules.
The intracellular ROS were measured with the oxidation-sensitive fluorescent probes 2′,7′-dichlorodihydrofluorescein diacetate (H2DCF-DA) (Sigma-Aldrich, St. Louis, MO, USA), as described elsewhere. The cell-permeant non-fluorescent dye H2DCF-DA is a reduced form of fluorescein that inside the cell, upon cleavage of the acetate groups by intracellular esterases and oxidation by ROS, is converted into the highly fluorescent product 2′,7′-dichlorofluorescein (DCF) (λex/λem: 498/525 nm). For the assay, 2 × 10^4 cells were seeded into wells of black flat-bottom 96-well microplates a day before the experiment. The next day, test compounds were added at concentrations of 0.5 × IC50, 1 × IC50, and 2 × IC50. […] After 24 h incubation, medium was removed, cell monolayers were washed twice with HBSS and 5 µM H2DCF-DA, dissolved in HBSS, was added to each well. The cells were incubated with the fluorescent probe for 30 min in the dark at 37 °C, and then the fluorescence of produced DCF was monitored over a time period of 0–3 h at 15-min intervals with a microplate reader.

Data set [5] in a line: Determination of log Po/w by chromatographic (RP-HPLC) method, Soczewiński–Wachtmeister relationship. Particulars: water/methanol, C18, 20 °C.
Procedure: In this study, a chromatographic method and the Soczewiński–Wachtmeister relationship were used in order to determine the lipophilicity of the compounds [38, 39, 40, 41]
For the determination of log Po/w values, the newly synthesized compounds were analyzed by an Agilent 1200 system (Agilent Technologies, Santa Clara, CA, USA) equipped with a Zorbax Eclipse XDB column (C18, 250 × 4.6 mm, Agilent Technologies) and controlled by the software ChemStation Data Analysis. The separation was isocratic, and water/methanol (HPLC gradient grade, Sigma-Aldrich, St. Louis, MO, USA) mixtures containing 0.50, 0.55, 0.60, 0.65, 0.70, 0.75, 0.80, 0.85, 0.90 and 0.95 volume fractions of organic modifier were used as the mobile phase. The flow rate was 1.0 mL/min for the 7 and 2 and 0.8 mL/min for other compounds. The chromatographic peaks of test compounds were detected by UV absorbance at 230 nm. The column temperature was kept at 20 °C. The dead-time values were measured from the effluent peaks. All of the runs were performed in triplicate, and the resulting average values were used for the calculation of the retention factors.
Where [6] appears, read: 24 h incubation, MTT, means ± SEM, read-out: cytotoxicity IC50, MCF-7/DX.
Where [7] appears, read: read-out: cytotoxicity IC50, A549, 24 h incubation, MTT, means ± SEM.

SMILES strings stand for the structures. Where two headings read alike, the source gives them in different places.

As for `O=c1[nH]c(=O)n(CCC(O)[C]23[CH]4[CH]5[CH]6[CH]2[Mn]5643[P](c2ccccc2)(c2ccccc2)c2ccccc2)cc1F.[C-]#[O+].[C-]#[O+]` (racemic) [Compound 3], the IC50 in data set [1] (setting [6]) was found to be 39.9 ± 1.41 µM; in data set [2] (setting [7]), 20.4 ± 1.09 µM. The “increase of apoptotic cells compared to untreated control cells” value (shortened to “increase of apoptotic cells”) in the data set with SKOV-3 cells [3] is “only a three-fold increase”. For the same compound, in the data set with SKOV-3 cells [3] (SKOV-3, morphology), the mitotic cell death result is recorded as “induced extensive mitotic cell death”. The “generated intracellular ROS” value in the data set on SKOV-3 cells [4] is recorded as “generated the largest amounts of ROS”. Further, the “Log Po/w” value in data set [5] was 5.2.
`COC(CCn1cc(F)c(=O)n(C)c1=O)[C]12[CH]3[CH]4[CH]5[CH]1[Mn]4532.[C-]#[O+].[C-]#[O+].[C-]#[O+]` (racemic) [Compound 4]: the IC50 in data set [2] was more than 150 µM. In addition, the “increase of apoptotic cells” value in the data set with SKOV-3 cells [3] is reported as “only a three-fold increase”.
For the compound `Nc1ncnc2c1ncn2CCC(O)[C]12[CH]3[CH]4[CH]5[CH]1[Mn]4532[P](c1ccccc1)(c1ccccc1)c1ccccc1.[C-]#[O+].[C-]#[O+]` (racemic) [Compound 5], the IC50 in data set [2] (setting [7]) was 23.7 ± 0.86 µM. Also, in the data set on SKOV-3 cells [3], the “increase of apoptotic cells” value amounted to 9 fold and the “apoptotic cell fraction predominantly increased” value is “early apoptotic cells”. For the same compound, in the data set on SKOV-3 cells [4], the “generated intracellular ROS” value is “generated the largest amounts of ROS”. The “Log Po/w” value in data set [5] amounted to 4.8.
In the case of `COC(CCn1cnc2c(N(C)C)ncnc21)[C]12[CH]3[CH]4[CH]5[CH]1[Mn]4532.[C-]#[O+].[C-]#[O+].[C-]#[O+]` (racemic) [Compound 6], in data set [2], the IC50 came to 102 ± 1.08 µM. Besides, in the data set on SKOV-3 cells [3], the “increase of apoptotic cells” value is 6 fold.
Turning to `Nc1ncnc2c1ncn2CCC(O)[C]12[CH]3[CH]4[CH]5[CH]1[Mn]45321[P](c2ccccc2)(c2ccccc2)CC[P]1(c1ccccc1)c1ccccc1.[C-]#[O+]` (racemic) [Compound C], the IC50 in data set [2] is 16.5 ± 0.82 µM. Besides, in the data set with SKOV-3 cells [3], the “increase of apoptotic cells” value was found to be 9 fold and the “apoptotic cell fraction predominantly increased” value was “early apoptotic cells”. Further, the “generated intracellular ROS” value with SKOV-3 cells [4] is on record as “generated the largest amounts of ROS”.
Regarding `O=C(CCn1cc(F)c(=O)[nH]c1=O)[C]12[CH]3[CH]4[CH]5[CH]1[Mn]4532.[C-]#[O+].[C-]#[O+].[C-]#[O+]` (centres unmarked) [Compound 1], the IC50 in data set [1] came out at 137 ± 3.41 µM; in data set [2], 25.1 ± 1.25 µM. Also, the “increase of apoptotic cells” value in the data set on SKOV-3 cells [3] is reported as 6 fold. Further, the “generated intracellular ROS” value in the data set on SKOV-3 cells [4] is “generated the largest amounts of ROS”.
Take `CCC(=O)[C]12[CH]3[CH]4[CH]5[CH]1[Mn]4532.[C-]#[O+].[C-]#[O+].[C-]#[O+]` (centres unmarked) [Compound 7, propionylocymantrene]: the IC50 in data set [2] came to 30.6 ± 1.35 µM. In the data set with SKOV-3 cells [3], the “increase of apoptotic cells” value is given as 9 fold and the “apoptotic cell fraction predominantly increased” value was “late-apoptotic cell fraction”.
As for `O=[C]=[Mn](=[C]=O)(=[C]=O)[CH]1C=CC=C1` [CymH, tricarbonyl(η^5-cyclopentadienyl)manganese, reference compound], the IC50 turned out to be 144 ± 2.24 µM in data set [1] (setting [6]) and 87 ± 1.35 µM in data set [2] (setting [7]). Further, in data set [5], the “Log Po/w” value is given as 3.5.

Values taken from PMC6149849, “Cymantrenyl-Nucleobases: Synthesis, Anticancer, Antitrypanosomal and Antimicrobial Activity Studies” (Molecules : A Journal of Synthetic Chemistry and Natural …, 2017).
